Data from US7396814B2, “Metallopeptide compositions for treatment of sexual dysfunction” (Palatin Technologies, Inc., priority 1995, dated 2008).
Non-standard residues stand in square brackets, D forms with d. *: point of attachment. dPhe(4-Cl) = N[C@H](Cc1ccc(Cl)cc1)C(=O)O; Heptanoyl = CCCCCCC(=O)*; Nle = CCCC[C@H](N)C(=O)O; Bn = c1ccc(C*)cc1

Columns and labels:
hMC3-R = target: T1, hMC3-R (Homo sapiens, UniProt P41968); test: Competitive inhibition binding assay, 125I-NDP-MSH, hMC3-R; details: 1 μM metallopeptide; 0.4 nM 125I-NDP-MSH; hMC3-R membranes
T1 construct: expressed in transfected cells
T1 sequence (P41968 whole entry): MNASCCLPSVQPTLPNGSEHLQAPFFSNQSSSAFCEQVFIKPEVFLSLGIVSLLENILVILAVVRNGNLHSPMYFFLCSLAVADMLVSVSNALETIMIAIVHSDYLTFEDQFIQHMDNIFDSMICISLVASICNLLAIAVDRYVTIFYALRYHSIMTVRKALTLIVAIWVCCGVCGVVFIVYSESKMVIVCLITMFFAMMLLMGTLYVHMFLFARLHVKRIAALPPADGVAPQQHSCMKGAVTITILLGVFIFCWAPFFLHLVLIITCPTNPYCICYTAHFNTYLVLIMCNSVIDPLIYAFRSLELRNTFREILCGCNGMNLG
Method: (§1) A competitive inhibition binding assay was conducted using membranes prepared from hMC3-R, hMC4-R, hMC5-R, and B-16 mouse melanoma cells (containing MC1-R) using 0.4 nM ^125I-NDP-MSH (0.2 nM for MC1-R) (New England Nuclear, Boston, Mass., USA) in 50 mM HEPES buffer containing 1 mM MgCl2, 2 mM CaCl2, and 5 mM KCl, at pH 7.2. The assay tube also contained a chosen concentration of the metallopeptides of this invention, at a 1 μM concentration, for determining inhibition of the binding of ^125I-NDP-MSH to its receptor. Non-specific binding was measured by complete inhibition of binding of ^125I-NDP-MSH in the assay in the presence of 1 μM α-MSH. Incubation was for 90 minutes at 37° C., after which the assay mixture was filtered and the membranes washed three times with ice cold buffer. The filter was dried and counted in a gamma counter for remaining radioactivity bound to the membranes. 100% specific binding was defined as the difference in radioactivity (cpm) bound to cell membranes in the absence and presence of 1 μM α-MSH. The cpm obtained in the presence of metallopeptides of this invention were normalized with respect to 100% specific binding to determine the percent inhibition of ^125I-NDP-MSH binding. Each assay was conducted in triplicate.

hMC4-R = target: T2, hMC4-R (Homo sapiens, UniProt P32245); test: Competitive inhibition binding assay, 125I-NDP-MSH, hMC4-R; details: 1 μM metallopeptide; 0.4 nM 125I-NDP-MSH; hMC4-R membranes
T2 construct: expressed in transfected cells
T2 sequence (P32245 whole entry): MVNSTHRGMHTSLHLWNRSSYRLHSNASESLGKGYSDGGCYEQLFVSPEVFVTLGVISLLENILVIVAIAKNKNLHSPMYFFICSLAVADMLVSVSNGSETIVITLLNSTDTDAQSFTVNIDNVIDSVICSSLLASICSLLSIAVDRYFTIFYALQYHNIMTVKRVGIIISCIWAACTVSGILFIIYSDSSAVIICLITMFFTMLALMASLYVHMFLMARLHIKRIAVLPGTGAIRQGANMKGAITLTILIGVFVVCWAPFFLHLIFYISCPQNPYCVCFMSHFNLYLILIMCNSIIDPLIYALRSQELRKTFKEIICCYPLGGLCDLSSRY
Method: as §1

[1] = target: T3, MC1-R (B-16 mouse melanoma cells) (Mus musculus, UniProt Q01727); test: Competitive inhibition binding assay, 125I-NDP-MSH, MC1-R; details: 1 μM metallopeptide; 0.2 nM 125I-NDP-MSH; B-16 mouse melanoma cell membranes
T3 construct: membranes prepared from hMC3-R, hMC4-R, hMC5-R, and B-16 mouse melanoma cells (containing MC1-R); endogenous in cells; host or cells: B-16 mouse melanoma cells
T3 sequence (Q01727 whole entry): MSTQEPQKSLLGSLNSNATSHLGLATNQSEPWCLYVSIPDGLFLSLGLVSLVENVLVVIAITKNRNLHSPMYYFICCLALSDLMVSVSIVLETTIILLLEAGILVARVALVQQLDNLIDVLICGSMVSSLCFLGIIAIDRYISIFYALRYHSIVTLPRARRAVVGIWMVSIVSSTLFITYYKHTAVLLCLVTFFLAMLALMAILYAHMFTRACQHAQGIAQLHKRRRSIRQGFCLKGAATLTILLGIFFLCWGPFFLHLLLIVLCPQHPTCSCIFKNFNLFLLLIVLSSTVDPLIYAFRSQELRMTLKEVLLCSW
Method: as §1

hMC5-R = target: T4, hMC5-R (Homo sapiens, UniProt P33032); test: Competitive inhibition binding assay, 125I-NDP-MSH, hMC5-R; details: 1 μM metallopeptide; 0.4 nM 125I-NDP-MSH; hMC5-R membranes
T4 construct: expressed in transfected cells
T4 sequence (P33032 whole entry): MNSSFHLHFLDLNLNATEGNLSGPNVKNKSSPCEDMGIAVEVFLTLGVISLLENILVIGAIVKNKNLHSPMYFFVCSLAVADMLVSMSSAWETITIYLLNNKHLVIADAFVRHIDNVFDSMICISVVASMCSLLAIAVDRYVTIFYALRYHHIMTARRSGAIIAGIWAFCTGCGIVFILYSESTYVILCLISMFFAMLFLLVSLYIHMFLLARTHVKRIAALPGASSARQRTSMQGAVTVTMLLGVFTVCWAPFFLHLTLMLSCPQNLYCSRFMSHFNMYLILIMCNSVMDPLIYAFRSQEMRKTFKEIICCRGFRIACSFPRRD
Method: as §1

Substance	Percent Inhibition at 1 μM MC3-R (hMC3-R)	Percent Inhibition at 1 μM MC4-R (hMC4-R)	Percent Inhibition at 1 μM MC1-R [1]	Percent Inhibition at 1 μM MC5-R (hMC5-R)
Heptanoyl-S(Bn)[dPhe(4-Cl)]RC-NH2	13%	38%	30%	26%
Ac-[Nle]AH[dF]RC-OH	0%	37%	18%	12%
Ac-[Nle]AH[dF]CR-OH	0%	23%	14%	9%
Ac-[Nle]AH[dF]RGC-OH	3%	27%	26%	23%
